According to patent US8987245B2, “Composition and method for affecting obesity and related conditions” (priority 2008, dated 2015):
“Also recorded” adds a separate entry of the source.

Assays:
protein kinase B (PKB) = assay: Experiment I: PKB activity and expression in skeletal muscle (quadriceps); type: in vivo, male C57BL/6J mice
Excerpt: The following experiment involved a diet-induced mouse model of obesity. In particular, male C57BL/6J mice (these wildtype mice are genetically distinct from ob/ob and db/db mice and are not leptin-deficient) were placed on a high fat diet (HFD) or control diet (CON) at 8 wks of age, and MnTBAP or vehicle administration was initiated 5 months later, when all mice were at a steady state body weight. Mice receiving the CON diet served as lean control animals to those receiving the HFD diet. Each of the CON and HFD mice groups were then further divided into two groups. One of the CON and HFD groups was treated with 10 mg MnTBAP/kg of body weight for 30 days, and the other groups received a vehicle for 30 days. […]
(§1) Before and after treatment, insulin sensitivity (IS) was assessed using an insulin-assisted glucose tolerance test (IA-GTT) after a 16-hour fast. Fasting body weights were measured at the end of each fast just prior to initiation of the IA-GTT. […] In addition, SWAT and EWAT weights were measured immediately after harvest. […]
In addition to affecting weight loss, MnTBAP has been shown by the above experiment to increase insulin sensitivity. […] It is noted that HFD mice were very insulin resistant before treatment (p<0.001), but a main effect for diet after treatment (p=0.3) was not detected, a result that underscores MnTBAP's effect on insulin action.

[1] = test system: uncoupling protein-3 (UCP3); assay: Experiment I: UCP3 expression in skeletal muscle (quadriceps); type: in vivo, male C57BL/6J mice
Excerpt: (§2) The following experiment involved a diet-induced mouse model of obesity. In particular, male C57BL/6J mice (these wildtype mice are genetically distinct from ob/ob and db/db mice and are not leptin-deficient) were placed on a high fat diet (HFD) or control diet (CON) at 8 wks of age, and MnTBAP or vehicle administration was initiated 5 months later, when all mice were at a steady state body weight. Mice receiving the CON diet served as lean control animals to those receiving the HFD diet. Each of the CON and HFD mice groups were then further divided into two groups. One of the CON and HFD groups was treated with 10 mg MnTBAP/kg of body weight for 30 days, and the other groups received a vehicle for 30 days. The term “vehicle” refers to the solvent used to deliver MnTBAP. In this experiment, MnTBAP was dissolved in 2% bicarbonate (pH 8.0) to a final concentration of 2 mg/mL. Vehicle-treated mice received a volume of vehicle that would have been sufficient to deliver 10 mg of MnTBAP per kg of body weight were the compound present. […]
as §1

[2] = many in ob/ob mice, younger mice; cited from earlier work
[3] = cited from earlier work
[4] = test system: diet-induced mouse model of obesity; assay: Experiment I: diet-induced mouse model of obesity, body weight, fat pad weights, caloric intake; type: in vivo, male C57BL/6J mice
Excerpt: The following experiment involved a diet-induced mouse model of obesity. In particular, male C57BL/6J mice (these wildtype mice are genetically distinct from ob/ob and db/db mice and are not leptin-deficient) were placed on a high fat diet (HFD) or control diet (CON) at 8 wks of age, and MnTBAP or vehicle administration was initiated 5 months later, when all mice were at a steady state body weight. Mice receiving the CON diet served as lean control animals to those receiving the HFD diet. Each of the CON and HFD mice groups were then further divided into two groups. One of the CON and HFD groups was treated with 10 mg MnTBAP/kg of body weight for 30 days, and the other groups received a vehicle for 30 days. The term “vehicle” refers to the solvent used to deliver MnTBAP. In this experiment, MnTBAP was dissolved in 2% bicarbonate (pH 8.0) to a final concentration of 2 mg/mL. Vehicle-treated mice received a volume of vehicle that would have been sufficient to deliver 10 mg of MnTBAP per kg of body weight were the compound present. MnTBAP was purchased from A.G. Scientific Inc., San Diego, Calif. […] The above-identified doses of MnTBAP and vehicle were administered to the mice as daily intraperitoneal injections.
At the start of the treatment, there were no significant differences in body weight between MnTBAP and vehicle groups within each diet (CON: p=0.99; HFD: p=0.77). In addition, HFD mice were dramatically heavier than CON mice at the start of treatment (p<0.001).
Before and after treatment, insulin sensitivity (IS) was assessed using an insulin-assisted glucose tolerance test (IA-GTT) after a 16-hour fast. Fasting body weights were measured at the end of each fast just prior to initiation of the IA-GTT. Approximately 5-7 days after the post-treatment IA-GTT, mice were stimulated with insulin ten minutes prior to delivery of an anesthetic cocktail to induce deep anesthesia for harvesting of quadriceps, tibialis anterior, soleus, gastrocnemius, subcutaneous white adipose tissue (SWAT), epididymal white adipose tissue (EWAT), and liver. In addition, SWAT and EWAT weights were measured immediately after harvest. Tissues were snap frozen in liquid nitrogen and stored at −80° C. until analysis. One quadriceps muscle from each mouse was homogenized for biochemical analyses.
Fasting body weights; fed-state body weights; and plasma glucose levels at various times during the IA-GTT, a test used to assess insulin sensitivity, were compared after treatment using a 2×2 analysis of variance (ANOVA) with repeated measures. Here “repeated measures” refers to the time of glucose measurement during the IA-GTT: 0, 15, 30, 45, 60 min. Subcutaneous white adipose tissue weights; epididymal white tissue adipose weights; caloric consumption; and all biochemical data, such as UCP-2, UCP-3, and PKB expression, were compared using a 2×2 ANOVA without repeated measures.

[5] = test system: diet-induced mouse model of obesity; assay: Experiment I: insulin-assisted glucose tolerance test (IA-GTT), insulin sensitivity; type: in vivo, male C57BL/6J mice; conditions: HFD mice, 10 mg/kg daily, after 16-hour fast
Excerpt: as §2, §1

[6] = test system: diet-induced mouse model of obesity; assay: Experiment II: diet-induced mouse model of obesity, food intake and body weight; type: in vivo, male C57BL/6J mice; conditions: 10 mg/kg for 36 days
Excerpt: The following experiment involved a diet-induced mouse model of obesity. In particular, male C57BL/6J mice (these wildtype mice are genetically distinct from ob/ob and db/db mice and are not leptin-deficient) were placed on a high fat diet (HFD) or control diet (CON) at 8 wks of age, and MnTBAP or vehicle administration was initiated 6 months later, when all mice were at a steady state body weight. Mice receiving the CON diet served as lean control animals to those receiving the HFD. Each of the CON and HFD mice groups were then further divided into two groups. One of the CON and HFD groups was treated with 10 mg MnTBAP/kg of body weight for 36 days, and the other groups received a vehicle for 36 days. Food intake was measured on days 0, 3, 9, 14 and 35 post-treatment.

[7] = HFD mice, quadriceps, 10 mg/kg daily for four weeks
[8] = both CON and HFD mice, 10 mg/kg daily i.p. for 30 days

## O=C(O)c1ccc(-c2c3nc(c(-c4ccc(C(=O)O)cc4)c4ccc([n-]4)c(-c4ccc(C(=O)O)cc4)c4nc(c(-c5ccc(C(=O)O)cc5)c5ccc2[n-]5)C=C4)C=C3)cc1.[Mn+3] [MnTBAP, manganese [III] tetrakis (4-benzoic acid) porphyrin]
Protein kinase B (PKB); CON mice, 10 mg/kg daily
  PKB expression: A statistically significant increase in PKB expression was not observed
Protein kinase B (PKB); [7]
  increase in activity and expression of PKB vs vehicle: ~60%
[1]; CON mice, skeletal muscle, 10 mg/kg daily
  UCP3 levels: lack of a significant increase
[1]; [7]
  UCP3 expression greater than vehicle: ~60%
[2]
  body weight change in known studies: either no change in weight or slowed weight gain but did not induce weight loss
[3]; doses up to 10 mg/kg of body weight
  adverse side effects: no known adverse side effects
[3]; mice, up to a dose of 88 mg/kg of body weight
  mortality rates and age of death: does not increase mortality rates or decrease age of death
[4]; 10 mg/kg daily i.p. for 30 days
  share of weight loss due to decreased SWAT and EWAT fat deposits: approximately 50%
[4]; CON mice, 10 mg/kg daily i.p.
  treatment time until significant weight loss, fed state: 27 days
[4]; CON mice, 10 mg/kg daily i.p. for 30 days, vs CON vehicle
  body weight less than vehicle-treated mice after treatment: 12.4%
[4]; HFD mice, 10 mg/kg daily i.p.
  treatment time until significant weight loss, fed state: 15 days
  weight loss after 30 days of treatment: dramatic weight loss
[4]; HFD mice, 10 mg/kg daily i.p. for 30 days, vs HFD vehicle
  body weight less than vehicle-treated mice after treatment: 18.6%
[4]; [8]
  EWAT weight compared to vehicle: dramatic reductions
  SWAT weight compared to vehicle: dramatic reductions
  daily caloric intake: without affecting daily caloric intake
  fasting body weight compared to vehicle: dramatic reductions
[4]; both HFD and CON mice, 10 mg/kg daily i.p. for 30 days
  fasting body weight after treatment vs before treatment: lower than before treatment
[5]
  insulin sensitivity (IA-GTT): significantly enhanced insulin sensitivity; also recorded: significantly improved insulin sensitivity
[6]; CON mice
  body weight and fat mass compared to vehicle-treated controls: lost a significant amount
[6]; CON mice, days 0, 3, 9, 14 and 35
  food intake vs vehicle: did not differ
[6]; HFD mice
  decrease in caloric intake over the course of the study: 16.6%
  food intake compared to vehicle-treated controls: markedly decreased food intake
